Assay results from the NIST ThermoML archive (doi:10.1016/j.jct.2016.02.016).

Key:
[1] = xn = mol fraction of the nth substance listed; conditions: 100 kPa, Liquid; for speed of sound: Frequency=3 MHz, Sing-around technique in a fixed-path interferometer; for mass density: Vibrating tube method
[2] = refractive index (Na D-line) (dimensionless); xn = mol fraction of the nth substance listed; conditions: 100 kPa, Liquid, Standard Abbe refractometry

CC(C)=O [acetone] + CN(C)C=O
Conditions | mass density, [1] [kg/m3] | refractive index, [2] | speed of sound, [1] [m/s]
293.15 K, x2 = 0 | 790.19 | 1.35845 | 1183.6
293.15 K, x2 = 0.0503 | 799.565 | 1.36286 | 1200.1
293.15 K, x2 = 0.1057 | 809.645 | 1.3677 | 1218
293.15 K, x2 = 0.1529 | 818.017 | 1.37155 | 1232.9
293.15 K, x2 = 0.1992 | 826.191 | 1.37532 | 1247.6
293.15 K, x2 = 0.2475 | 834.489 | 1.37922 | 1262.6
293.15 K, x2 = 0.2981 | 843.136 | 1.38311 | 1278.3
293.15 K, x2 = 0.3458 | 851.059 | 1.38685 | 1292.6
293.15 K, x2 = 0.3942 | 859.037 | 1.3905 | 1307.4
293.15 K, x2 = 0.4516 | 868.376 | 1.39472 | 1324.6
293.15 K, x2 = 0.4973 | 875.647 | 1.398 | 1338.1
293.15 K, x2 = 0.5476 | 883.523 | 1.40156 | 1352.9
293.15 K, x2 = 0.599 | 891.359 | 1.40511 | 1367.5
293.15 K, x2 = 0.6521 | 899.454 | 1.40867 | 1382.9
293.15 K, x2 = 0.7051 | 907.302 | 1.41226 | 1397.8
293.15 K, x2 = 0.7538 | 914.504 | 1.41537 | 1411.4
293.15 K, x2 = 0.8063 | 921.993 | 1.41877 | 1425.7
293.15 K, x2 = 0.8441 | 927.346 | 1.42113 | 1436
293.15 K, x2 = 0.9022 | 935.518 | 1.42474 | 1451.7
293.15 K, x2 = 0.9471 | 941.723 | 1.42742 | 1463.7
298.15 K, x2 = 0 | 784.43 | 1.35386 | 1163.6
298.15 K, x2 = 0.05 | 793.781 | 1.35901 | 1180.1
298.15 K, x2 = 0.127 | 807.814 | 1.3664 | 1205.5
298.15 K, x2 = 0.1485 | 811.673 | 1.36834 | 1212.5
298.15 K, x2 = 0.1908 | 819.252 | 1.37223 | 1226.2
298.15 K, x2 = 0.2492 | 829.349 | 1.37711 | 1244.6
298.15 K, x2 = 0.297 | 837.55 | 1.38103 | 1259.6
298.15 K, x2 = 0.3399 | 844.898 | 1.38441 | 1273.1
298.15 K, x2 = 0.3997 | 854.838 | 1.38893 | 1291.5
298.15 K, x2 = 0.4461 | 862.361 | 1.39235 | 1305.3
298.15 K, x2 = 0.4978 | 870.632 | 1.39595 | 1320.8
298.15 K, x2 = 0.549 | 878.71 | 1.39951 | 1336.2
298.15 K, x2 = 0.5893 | 884.968 | 1.40233 | 1348.1
298.15 K, x2 = 0.6413 | 892.941 | 1.40581 | 1363.3
298.15 K, x2 = 0.6822 | 898.928 | 1.40851 | 1374.7
298.15 K, x2 = 0.7435 | 908.066 | 1.41236 | 1392.3
298.15 K, x2 = 0.7945 | 915.398 | 1.41552 | 1406.4
298.15 K, x2 = 0.8342 | 921.109 | 1.41805 | 1417.5
298.15 K, x2 = 0.8801 | 927.621 | 1.4209 | 1430.1
298.15 K, x2 = 0.9377 | 935.649 | 1.42451 | 1445.8
303.15 K, x2 = 0 | 778.63 | – | 1139.9
303.15 K, x2 = 0.0571 | 789.325 | – | 1159
303.15 K, x2 = 0.1075 | 798.734 | – | 1175.8
303.15 K, x2 = 0.148 | 805.999 | – | 1188.9
303.15 K, x2 = 0.2001 | 815.316 | – | 1205.7
303.15 K, x2 = 0.2528 | 824.518 | – | 1222.4
303.15 K, x2 = 0.3003 | 832.657 | – | 1237.3
303.15 K, x2 = 0.3487 | 840.866 | – | 1252.5
303.15 K, x2 = 0.392 | 848.12 | – | 1265.8
303.15 K, x2 = 0.4547 | 858.369 | – | 1284.8
303.15 K, x2 = 0.4991 | 865.505 | – | 1298.1
303.15 K, x2 = 0.5422 | 872.357 | – | 1310.9
303.15 K, x2 = 0.6046 | 882.041 | – | 1329.2
303.15 K, x2 = 0.6507 | 889.133 | – | 1342.6
303.15 K, x2 = 0.6986 | 896.27 | – | 1356.3
303.15 K, x2 = 0.7493 | 903.843 | – | 1370.7
303.15 K, x2 = 0.7975 | 910.848 | – | 1384.2
303.15 K, x2 = 0.8442 | 917.613 | – | 1397.1
303.15 K, x2 = 0.8972 | 925.06 | – | 1411.5
303.15 K, x2 = 0.9411 | 931.137 | – | 1423.4
